Columns and labels:
Assay type in all cases: in vivo
[1] = tested on: rice (Oryza sativa); test: Test B flooded paddy test, rice; conditions: Oryza sativa; 250 g ai/ha, Flood; visual rating after 13 to 15 days; scale 0 to 100, 0 is no effect, 100 is complete control; read-out: Plant response rating, Rice
Outline: (§1)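 Visual ratings, 0 = no effect to 100 = complete control, versus controls after 13 to 15 days in greenhouse. Test compounds were added to paddy water kept 3 cm over the soil surface, on plants at 2-leaf stage.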

[2] = tested on: pigweed (Amaranthus retroflexus); test: Test A postemergence, pigweed; conditions: Amaranthus retroflexus, post-emergence, 240 h, postemergence, 0 to 100 scale, 0 is no effect, 100 is complete control, approximately 10 days, read-out: Plant response rating, Pigweed; for pest or weed control at 125 g/ha: 125 g ai/ha
Outline: (§2)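 Test chemicals in a solvent/surfactant mixture were applied as a preemergence directed soil spray on seeded loam–sand, or postemergence to plants 2–10 cm tall at the one- to two-leaf stage. After roughly 10 days in a greenhouse, injury was visually rated versus untreated controls on a 0 (no effect) to 100 (complete control) scale.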

[3] = tested on: sedge, umbrella (small-flower umbrella sedge, Cyperus difformis); test: Test B flooded paddy test, umbrella sedge; conditions: Cyperus difformis; 250 g ai/ha, Flood; visual rating after 13 to 15 days; scale 0 to 100, 0 is no effect, 100 is complete control; read-out: Plant response rating, Sedge, Umbrella
Outline: as §1

[4] = tested on: galium (catchweed bedstraw, Galium aparine); test: Test A postemergence, galium; conditions: Galium, post-emergence, 240 h, postemergence, 0 to 100 scale, 0 is no effect, 100 is complete control, approximately 10 days, read-out: Plant response rating, Galium; for pest or weed control at 125 g/ha: 125 g ai/ha
Outline: as §2

[5] = tested on: foxtail, giant (giant foxtail, Setaria faberii); test: Test A preemergence, giant foxtail; conditions: Setaria faberi, pre-emergence, 240 h, Preemergence, 0 to 100 scale (0 no effect, 100 complete control), read-out: Plant response rating, Foxtail, Giant; for pest or weed control at 125 g/ha: 125 g ai/ha
Outline: as §2

[6] = tested on: wheat (Triticum aestivum); test: Test A postemergence, wheat; conditions: Triticum aestivum, post-emergence, 240 h, postemergence, 0 to 100 scale, 0 is no effect, 100 is complete control, approximately 10 days, read-out: Plant response rating, Wheat; for plant injury at 125 g/ha: 125 g ai/ha
Outline: as §2

[7] = tested on: foxtail, giant (giant foxtail, Setaria faberii); test: Test A postemergence, giant foxtail; conditions: Setaria faberi, post-emergence, 240 h, postemergence, 0 to 100 scale, 0 is no effect, 100 is complete control, approximately 10 days, read-out: Plant response rating, Foxtail, Giant; for pest or weed control at 125 g/ha: 125 g ai/ha
Outline: as §2

[8] = tested on: pigweed (Amaranthus retroflexus); test: Test A preemergence, pigweed; conditions: Amaranthus retroflexus, pre-emergence, 240 h, Preemergence, 0 to 100 scale (0 no effect, 100 complete control), read-out: Plant response rating, Pigweed; for pest or weed control at 125 g/ha: 125 g ai/ha
Outline: as §2

[9] = tested on: blackgrass (Alopecurus myosuroides); test: Test A postemergence, blackgrass; conditions: Alopecurus myosuroides, post-emergence, 240 h, postemergence, 0 to 100 scale, 0 is no effect, 100 is complete control, approximately 10 days, read-out: Plant response rating, Blackgrass; for pest or weed control at 125 g/ha: 125 g ai/ha
Outline: as §2

[10] = tested on: barnyardgrass (Echinochloa crus-galli); test: Test B flooded paddy test, barnyardgrass; conditions: Echinochloa crus-galli; 250 g ai/ha, Flood; visual rating after 13 to 15 days; scale 0 to 100, 0 is no effect, 100 is complete control; read-out: Plant response rating, Barnyardgrass
Outline: as §1

[11] = tested on: ryegrass, Italian (Italian ryegrass, Lolium multiflorum); test: Test A preemergence, Italian ryegrass; conditions: Lolium multiflorum, pre-emergence, 240 h, Preemergence, 0 to 100 scale (0 no effect, 100 complete control), read-out: Plant response rating, Ryegrass, Italian; for pest or weed control at 125 g/ha: 125 g ai/ha
Outline: as §2

[12] = tested on: kochia (Kochia scoparia); test: Test A preemergence, kochia; conditions: Bassia scoparia, pre-emergence, 240 h, Preemergence, 0 to 100 scale (0 no effect, 100 complete control), read-out: Plant response rating, Kochia; for pest or weed control at 125 g/ha: 125 g ai/ha
Outline: as §2

[13] = tested on: kochia (Kochia scoparia); test: Test A postemergence, kochia; conditions: Bassia scoparia, post-emergence, 240 h, postemergence, 0 to 100 scale, 0 is no effect, 100 is complete control, approximately 10 days, read-out: Plant response rating, Kochia; for pest or weed control at 125 g/ha: 125 g ai/ha
Outline: as §2

[14] = tested on: ryegrass, Italian (Italian ryegrass, Lolium multiflorum); test: Test A postemergence, Italian ryegrass; conditions: Lolium multiflorum, post-emergence, 240 h, postemergence, 0 to 100 scale, 0 is no effect, 100 is complete control, approximately 10 days, read-out: Plant response rating, Ryegrass, Italian; for pest or weed control at 125 g/ha: 125 g ai/ha
Outline: as §2

N#Cc1cccc(Oc2ncc(Cl)cn2)c1OCCC(F)(F)F [Compound 23, 3-[(5-chloro-2-pyrimidinyl)oxy]-2-(3,3,3-trifluoropropoxy)benzonitrile]
plant injury at 250 g/ha [1]: 30% | pest or weed control at 31 g/ha ([2]; 31 g ai/ha): 100% | pest or weed control at 125 g/ha [2]: 100% | pest or weed control at 250 g/ha [3]: 100% | pest or weed control at 31 g/ha ([4]; 31 g ai/ha): 60% | pest or weed control at 125 g/ha [4]: 90% | pest or weed control at 31 g/ha ([5]; 31 g ai/ha): 90% | pest or weed control at 125 g/ha [5]: 100% | plant injury at 31 g/ha ([6]; 31 g ai/ha): 20% | plant injury at 125 g/ha [6]: 70% | pest or weed control at 31 g/ha ([7]; 31 g ai/ha): 20% | pest or weed control at 125 g/ha [7]: 90% | pest or weed control at 31 g/ha ([8]; 31 g ai/ha): 100% | pest or weed control at 125 g/ha [8]: 100% | pest or weed control at 31 g/ha ([9]; 31 g ai/ha): 20% | pest or weed control at 125 g/ha [9]: 70% | pest or weed control at 250 g/ha [10]: 50% | pest or weed control at 31 g/ha ([11]; 31 g ai/ha): 0% | pest or weed control at 125 g/ha [11]: 30% | pest or weed control at 31 g/ha ([12]; 31 g ai/ha): 100% | pest or weed control at 125 g/ha [12]: 100% | pest or weed control at 31 g/ha ([13]; 31 g ai/ha): 90% | pest or weed control at 125 g/ha [13]: 100% | pest or weed control at 31 g/ha ([14]; 31 g ai/ha): 20% | pest or weed control at 125 g/ha [14]: 40%

Fc1cccc(Oc2ncc(Cl)cn2)c1OCC(F)(F)F [Compound 28]
plant injury at 250 g/ha [1]: 0% | pest or weed control at 125 g/ha [2]: 30% | pest or weed control at 500 g/ha ([2]; 500 g ai/ha): 70% | pest or weed control at 250 g/ha [3]: 0% | pest or weed control at 125 g/ha [4]: 0% | pest or weed control at 500 g/ha ([4]; 500 g ai/ha): 20% | pest or weed control at 125 g/ha [5]: 0% | pest or weed control at 500 g/ha ([5]; 500 g ai/ha): 70% | plant injury at 125 g/ha [6]: 0% | plant injury at 500 g/ha ([6]; 500 g ai/ha): 0% | pest or weed control at 125 g/ha [7]: 0% | pest or weed control at 500 g/ha ([7]; 500 g ai/ha): 20% | pest or weed control at 125 g/ha [8]: 0% | pest or weed control at 500 g/ha ([8]; 500 g ai/ha): 100% | pest or weed control at 125 g/ha [9]: 0% | pest or weed control at 500 g/ha ([9]; 500 g ai/ha): 20% | pest or weed control at 250 g/ha [10]: 0% | pest or weed control at 125 g/ha [11]: 0% | pest or weed control at 500 g/ha ([11]; 500 g ai/ha): 20% | pest or weed control at 125 g/ha [12]: 0% | pest or weed control at 500 g/ha ([12]; 500 g ai/ha): 20% | pest or weed control at 125 g/ha [13]: 0% | pest or weed control at 500 g/ha ([13]; 500 g ai/ha): 10% | pest or weed control at 125 g/ha [14]: 0% | pest or weed control at 500 g/ha ([14]; 500 g ai/ha): 0%

Source: patent US10485235B2, “Aryloxypyrimidinyl ethers as herbicides” (FMC Corporation, priority 2015, dated 2019)
